Columns and labels:
[1] = molecular target: T1, His-His-USP7 (aa208-560, |C315A|) (Homo sapiens, UniProt Q93009, C315A); assay: Evaluation of the inhibition of USP7 by the Fluorescence Intensity (FLINT) readings; format: biochemical; details: 0.25 nM His-His-USP7, compound incubated 60 minutes at 30° C., 500 nM Ubiquitin-Rhodamine-110 substrate; 50% reduction in kinetic rate
T1 construct: His-His-USP7 (aa208-560, |C315A|); His-His (N)
In short: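 IC50 reflects 50% reduction in kinetic rate of rhodamine-110 release (Ex485/Em535, reads every 3 min over 21 min), normalised to DMSO and no-enzyme controls, from an 11-point 4-parameter fit. Substrate is 500 nM Ub-Rh110, added after 60 min, 30 °C preincubation of compound with 0.25 nM USP7 aa208–560 C315A. Buffer is Bicine pH 8.0 with 10% DMSO.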

[2] = system: Z138 mantle cell lymphoma tumour cell lines; assay: In vitro cytotoxicity, MTT assay; format: cell-based; details: Z138 cells exposed to the test compounds for 96 hours, cell viability vs DMSO treated cells
Method: The cytotoxicity studies were evaluated by MTT [3-(4,5-dimethylthiazol-2-yl)-2,5-diphenyltetrazolium bromide] assay and carried out on Z138 mantle cell lymphoma tumour cell lines. The cells are distributed onto microplates and exposed to the test compounds for 96 hours. MTT is then added for 4 hours and converted by NAD(P)H-dependent cellular oxidoreductase enzymes in formazan, which has a purple color. The viable cell number is proportional to the production of formuan salts and cell viability can be quantified by the absorbance of the solution at 540 nm with a speetrophotometer (Carmichael et al., Cancer Res. 1987, 47, 936-942).

T1 sequence (Q93009 208-560 C315A): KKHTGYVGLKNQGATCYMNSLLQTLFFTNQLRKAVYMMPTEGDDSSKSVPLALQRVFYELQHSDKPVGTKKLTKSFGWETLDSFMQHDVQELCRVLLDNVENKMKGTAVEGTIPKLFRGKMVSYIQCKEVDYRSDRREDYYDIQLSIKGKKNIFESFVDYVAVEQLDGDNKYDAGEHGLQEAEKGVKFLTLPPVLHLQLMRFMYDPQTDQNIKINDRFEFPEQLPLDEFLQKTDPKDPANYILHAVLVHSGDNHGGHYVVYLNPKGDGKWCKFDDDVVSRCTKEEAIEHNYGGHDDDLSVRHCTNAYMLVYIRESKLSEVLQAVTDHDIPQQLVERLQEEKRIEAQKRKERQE

| IC50 [1] [nM] | Compound | IC50 ([2]; Homo sapiens, Z-138, 96 h) [µM] | IC50 [2] [µM] |
| --- | --- | --- | --- |
| 3.48 | Nc1c(Oc2ccc(F)cc2)ncn(C[C@@]2(O)CCN(C(=O)[C@@H]3CC[C@](F)(C#Cc4cccnn4)C[C@H]3c3ccccc3)CC2(F)F)c1=O [Example 168, 5-amino-3-{[(4S)-3,3-difluoro-1-{[(1R,2R,4R)-4-fluoro-2-phenyl-4-[2-(pyridazin-3-yl)ethynyl]cyclohexyl]carbonyl}-4-hydroxypiperidin-4-yl]methyl}-6-(4-fluorophenoxy)pyrimidin-4-one] | 0.00157 |  |
| 5.57 | CO[C@]1(C#Cc2cccnn2)CC[C@@H](C(=O)N2CC[C@](O)(Cn3cnc(Oc4ccc(F)cc4)c(N)c3=O)C(F)(F)C2)[C@H](c2ccccc2)C1 [Example 165, 5-amino-3-{[(4S)-3,3-difluoro-4-hydroxy-1-{[(1R,2R,4R)-4-methoxy-2-phenyl-4-[2-(pyridazin-3-yl)ethynyl]cyclohexyl]carbonyl}piperidin-4-yl]methyl}-6-(4-fluorophenoxy)pyrimidin-4-one] | 0.00415 |  |
| 31.5 | Nc1c(Oc2ccc(F)cc2)ncn(CC2(O)CCN(C(=O)[C@@H]3CC[C@](F)(C#Cc4ccc(F)cn4)C[C@H]3c3ccccc3)CC2)c1=O [Example 133, 5-amino-3-[(1-{[(1R,2R4R)-4-fluoro-4-[2-(5-fluoropyridin-2-yl)ethynyl]-2-phenylcyclohexyl]carbonyl}-4-hydroxypiperidin-4-yl)methyl]-6-(4-fluorophenoxy)pyrimidin-4-one] | 0.0187 |  |
| 10 | Cc1ccc(C#C[C@@]2(F)CC[C@@H](C(=O)N3CC[C@](O)(Cn4cnc(Oc5ccc(F)cc5)c(N)c4=O)C(F)(F)C3)[C@H](c3ccccc3)C2)nn1 [Example 162, 5-amino-3-[[(4S)-3,3-difluoro-1-[(1R,2R,4R)-4-fluoro-4-[2-(6-methylpyridazin-3-yl)ethynyl]-2-phenylcyclohexanecarbonyl]-4-hydroxypiperidin-4-yl]methyl]-6-(4-fluorophenoxy)-3,4-dihydropyrimidin-4-one] | 0.00647 |  |
| 6.77 | Nc1c(Oc2ccc(F)cc2)ncn(CC2(O)CCN(C(=O)[C@@H]3CC[C@](F)(C#Cc4cc(F)ccn4)C[C@H]3c3ccccc3)CC2)c1=O [Example 157, 5-amino-3-({1-[(1R,2R,4R)-4-fluoro-4-[2-(4-fluoropyridin-2-yl)ethynyl]-2-phenylcyclohexanecarbonyl]-4-hydroxypiperidin-4-yl}methyl)-6-(4-fluorophenoxy)-3,4-dihydropyrimidin-4-one] | 0.00716 |  |
| 29.6 | CO[C@]1(C#Cc2cnccn2)CC[C@@H](C(=O)N2CCC(O)(Cn3cnc(Oc4ccc(F)cc4)c(N)c3=O)CC2)[C@H](c2ccccc2)C1 [Example 156, 5-amino-6-(4-fluorophenoxy)-3-({4-hydroxy-1-[(1R,2R,4R)-4-methoxy-2-phenyl-4-[2-(pyrazin-2-yl)ethynyl]cyclohexanecarbonyl]piperidin-4-yl}methyl)-3,4-dihydropyrimidin-4-one] | 0.00653 |  |
| 56.5 | Nc1c(Oc2ccc(F)cc2)ncn(CC2(O)CCN(C(=O)[C@@H]3CC=C(C#Cc4ncccn4)C[C@H]3c3ccccc3)CC2)c1=O [Example 143, 5-amino-6-(4-fluorophenoxy)-3-[(4-hydroxy-1-{[(1R,6R)-6-phenyl-4-[2-(pyrimidin-2-yl)ethynyl]cyclohex-3-en-1-yl]carbonyl}piperidin-4-yl)methyl]pyrimidin-4-one] | 0.0787 |  |
| 77.2 | CO[C@]1(C#Cc2nccc(C)n2)CC[C@@H](C(=O)N2CC[C@](O)(Cn3cnc(Oc4ccc(F)cc4)c(N)c3=O)C(F)(F)C2)[C@H](c2ccccc2)C1 [Example 176, 5-amino-3-{[(4S)-3,3-difluoro-4-hydroxy-1-[(1R,2R,4R)-4-methoxy-4-[2-(4-methylpyrimidin-2-yl)ethynyl]-2-phenylcyclohexanecarbonyl]piperidin-4-yl]methyl}-6-(4-fluorophenoxy)-3,4-dihydropyrimidin-4-one] | 0.037 |  |

Further lines, the compound ahead of its results:

| Compound | IC50 [1] [nM] | IC50 ([2]; Homo sapiens, Z-138, 96 h) [µM] | IC50 [2] [µM] |
| --- | --- | --- | --- |
| Cc1ccc(Oc2ncn(CC3(O)CCN(C(=O)[C@@H]4CCC(F)(F)C[C@H]4c4ccccc4)CC3)c(=O)c2N)cc1O [Example 111, 5-amino-3-({1-[(1R,2R)-4,4-difluoro-2-phenylcyclohexane-1-carbonyl]-4-hydroxypiperidin-4-yl}methyl)-6-(3-hydroxy-4-methylphenoxy)pyrimidin-4(3H)-one] | 22.1 | 0.0588 |  |
| Nc1c(Oc2ccc3c(c2)CCNC3)ncn(CC2(O)CCN(C(=O)[C@@H]3CCC(F)(F)C[C@H]3c3ccccc3)CC2)c1=O [Example 31, 5-amino-3-({1-[(1R,2R)-4,4-difluoro-2-phenylcyclohexane-1-carbonyl]-4-hydroxypiperidin-4-yl}methyl)-6-[(1,2,3,4-tetrahydroisoquinolin-6-yl)oxy]pyrimidin-4(3H)-one] | 47 | 0.648 |  |
| Nc1c(Oc2cccc(O)c2)ncn(C[C@@]2(O)CCN(C(=O)[C@@H]3CCC(F)(F)C[C@H]3c3ccccc3)CC2(F)F)c1=O [Example 104, 5-amino-3-({(4S)-1-[(1R,2R)-4,4-difluoro-2-phenylcyclohexane-1-carbonyl]-3,3-difluoro-4-hydroxypiperidin-4-yl}methyl)-6-(3-hydroxyphenoxy)pyrimidin-4(3H)-one] | 41 | 0.014 |  |
| Nc1c(Oc2ccc(F)cc2)ncn(CC2(O)CCN(C(=O)[C@@H]3CCC(F)(C#CC4CC4)C[C@H]3c3ccccc3)CC2)c1=O (relative stereo) [Example 124, rel-5-amino-3-[(1 -{[(1R,2 R)-4-(2-cyclopropylethynyl)-4-fluoro-2-phenylcyclohexyl]carbonyl}-4-hydroxypiperidin-4-yl)methyl]-6-(4-fluorophenoxy)pyrimidin-1-one] | 89.6 | 0.236 |  |
| Nc1c(Oc2ccc(F)c(O)c2)ncn(C[C@@]2(O)CCN(C(=O)[C@@H]3CCC(F)(F)C[C@H]3c3ccccc3)CC2(F)F)c1=O [Example 109, 5-amino-3-({(4S)-1-[(1R,2R)-4,4-fluoro-2-phenylcyclohexane-1-carbonyl]-3,3-difluoro-4-hydroxypiperidin-4-yl}methyl)-6-(4-fluoro-3-hydroxyphenoxy)pyrimidin-4(3H)-one] | 40.3 |  | 0.0155 |
| Nc1c(Oc2ccc(CNC3CC3)cc2)ncn(CC2(O)CCN(C(=O)[C@@H]3CCC(F)(F)C[C@H]3c3ccccc3)CC2)c1=O [Example 77] | 25 | 0.156 |  |
| CC(C)(C)NCc1ccc(Oc2ncn(CC3(O)CCN(C(=O)[C@@H]4CCC(F)(F)C[C@H]4c4ccccc4)CC3)c(=O)c2N)cc1 [Example 75, 5-amino-6-{4-[(tert-butylamino)methyl]phenoxy}-3-({1-[(1R,2R)-4,4-difluoro-2-phenylcyclohexane-1-carbonyl]-4-hydroxypiperidin-4-yl}methyl)pyrimidin-4(3H)-one] | 10 | 0.184 |  |
| Nc1c(Oc2ccc(C3CCCN3)cc2)ncn(CC2(O)CCN(C(=O)[C@@H]3CCC(F)(F)C[C@H]3c3ccccc3)CC2)c1=O (stereo partly drawn) [Example 34, 5-amino-3({1-[(1R,2R)-4,4-difluoro-2-phenylcyclohexane-1-carbonyl]-4-hydroxypiperidin-4-yl}methyl)-6-[4-(pyrrolidin-2-yl)phenoxy]pyrimidin-4(3H)-one] | 10.8 | 0.52 |  |
| Nc1c(Oc2ccc(F)cc2)ncn(CC2(O)CCN(C(=O)[C@@H]3CC[C@](F)(C#Cc4ccccn4)C[C@H]3c3ccccc3)CC2)c1=O [Example 132, 5-amino-3-[(1-{[(1R,2R4R)-4-fluoro-2-phenyl-4-[2-(pyridin-2-yl)ethynyl]cyclohexyl]carbonyl}-4-hydroxypiperidin-4-yl)methyl]-6-(4-fluorophenoxy)pyrimidin-4-one] | 3.29 | 0.00214 |  |
| Nc1c(Oc2ccc(F)c(CO)c2)ncn(CC2(O)CCN(C(=O)[C@@H]3CCC(F)(F)C[C@H]3c3ccccc3)CC2)c1=O [Example 118, 5-amino-3-({1-[(1R,2R)-4,4-difluoro-2-phenylcyclohexane-1-carbonyl]-4-hydroxypiperidin-4-yl}methyl)-6-[4-fluoro-3-(hydroxymethyl)phenoxy]pyrimidin-4(3H)-one] | 33.1 | 0.0413 |  |
| Nc1c(Oc2ccc(F)cc2)ncn(CC2(O)CCN(C(=O)[C@@H]3CC[C@@](O)(Cc4ccccc4)C[C@H]3c3ccccc3)CC2)c1=O (relative stereo) [Example 95, rel-5-amino-3-({1-[(1R,2R,4S)-4-benzyl-4-hydroxy-2-phenyl-cyclohexanecarbonyl]-4-hydroxypiperidin-4-yl}methyl)-6-(4-fluorophenoxy)-3,4-dihydropyrimidin-4-one] | 172 | 0.253 |  |
| Nc1c(Oc2ccc(F)c(O)c2)ncn(CC2(O)CCN(C(=O)[C@@H]3CCC(F)(F)C[C@H]3c3ccccc3)CC2)c1=O [Example 41, 5-amino-3-({1-[(1R,2R)-4,4-difluoro-2-phenylcyclohexane-1-carbonyl]-4-hydroxypiperidin-4-yl}methyl)-6-(4-fluoro-3-hydroxyphenoxy)pyrimidin-4(3H)-one] | 42 | 0.0096 |  |

Source: patent US20210221785A1, “AMINO-PYRIMIDONYL DERIVATIVES, A PROCESS FOR THEIR PREPARATION AND PHARMACEUTICAL COMPOSITIONS CONTAINING THEM” (LES LABORATOIRES SERVIER, priority 2018, published 2021)
